Assay results as given in publication PMC12693419, “Design, Synthesis, Biological Evaluation, and In Silico Studies of Novel Multitarget Cinnamic Acid Hybrids” (Molecules, 2025).

Experiments:
[1] = molecular target: T1, ovine COX-2 (Ovis aries, UniProt P79208); test: In vitro inhibition of ovine cyclooxygenase-2
T1 sequence (P79208 17-603): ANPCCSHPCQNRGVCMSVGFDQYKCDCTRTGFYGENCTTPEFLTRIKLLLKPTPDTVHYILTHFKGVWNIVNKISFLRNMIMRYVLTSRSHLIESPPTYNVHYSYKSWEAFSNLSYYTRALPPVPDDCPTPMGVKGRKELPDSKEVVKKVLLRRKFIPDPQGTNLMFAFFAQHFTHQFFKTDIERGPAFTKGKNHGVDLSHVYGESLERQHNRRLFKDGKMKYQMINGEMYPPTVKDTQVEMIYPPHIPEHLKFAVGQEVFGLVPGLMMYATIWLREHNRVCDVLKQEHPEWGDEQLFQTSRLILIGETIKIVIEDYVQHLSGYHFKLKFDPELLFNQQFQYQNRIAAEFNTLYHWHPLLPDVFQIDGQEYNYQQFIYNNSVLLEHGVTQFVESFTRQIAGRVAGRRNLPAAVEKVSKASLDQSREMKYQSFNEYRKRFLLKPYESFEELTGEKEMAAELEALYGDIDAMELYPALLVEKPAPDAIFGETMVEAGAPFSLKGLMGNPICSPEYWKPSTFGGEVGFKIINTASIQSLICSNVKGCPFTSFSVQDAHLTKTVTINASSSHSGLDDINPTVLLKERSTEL
Experimental: In order to prevent this in the in vitro experiment used for testing COX inhibition activity of the new molecules, a co-substrate like N,N,N′,N′-tetramethyl-p-phenylenediamine (TMPD) is included, as it undergoes co-oxidation by PGG2. The oxidized TMPD has a maximum absorbance at 590 nm. […] To ensure maximum enzyme activity, heme is added to the reaction mixture during the in vitro assay for ovine COX-2 inhibition and COX-1 inhibition [63].
The in vitro COX-2 inhibitory activity was assessed using arachidonic acid (AA) as a substrate and N,N,N′,N′-tetramethyl-p-phenylenediamine (TMPD) as a co-substrate in a Tris-HCl buffer (pH 8.5), following the reported method [89]. To the test tube, 10 µL of the compound dissolved in DMSO was added to a mixture containing 730 µL of Tris-HCl buffer (pH 8.5), 50 µL of heme, 10 µL of COX-2 enzyme, and 100 µL of TMPD. The absorbance was measured at 590 nm. […] A blank determination was conducted as a negative control.

[2] = molecular target: T2, soybean lipoxygenase isoenzyme-1 (SLOX-1) (Glycine max, UniProt P08170); test: In vitro inhibition of soybean lipoxygenase; type: biochemical; details: pH 9.0, read-out: LOX Inh. IC50
T2 construct: purchased Merck and Sigma-Aldrich
T2 sequence (P08170 1-839): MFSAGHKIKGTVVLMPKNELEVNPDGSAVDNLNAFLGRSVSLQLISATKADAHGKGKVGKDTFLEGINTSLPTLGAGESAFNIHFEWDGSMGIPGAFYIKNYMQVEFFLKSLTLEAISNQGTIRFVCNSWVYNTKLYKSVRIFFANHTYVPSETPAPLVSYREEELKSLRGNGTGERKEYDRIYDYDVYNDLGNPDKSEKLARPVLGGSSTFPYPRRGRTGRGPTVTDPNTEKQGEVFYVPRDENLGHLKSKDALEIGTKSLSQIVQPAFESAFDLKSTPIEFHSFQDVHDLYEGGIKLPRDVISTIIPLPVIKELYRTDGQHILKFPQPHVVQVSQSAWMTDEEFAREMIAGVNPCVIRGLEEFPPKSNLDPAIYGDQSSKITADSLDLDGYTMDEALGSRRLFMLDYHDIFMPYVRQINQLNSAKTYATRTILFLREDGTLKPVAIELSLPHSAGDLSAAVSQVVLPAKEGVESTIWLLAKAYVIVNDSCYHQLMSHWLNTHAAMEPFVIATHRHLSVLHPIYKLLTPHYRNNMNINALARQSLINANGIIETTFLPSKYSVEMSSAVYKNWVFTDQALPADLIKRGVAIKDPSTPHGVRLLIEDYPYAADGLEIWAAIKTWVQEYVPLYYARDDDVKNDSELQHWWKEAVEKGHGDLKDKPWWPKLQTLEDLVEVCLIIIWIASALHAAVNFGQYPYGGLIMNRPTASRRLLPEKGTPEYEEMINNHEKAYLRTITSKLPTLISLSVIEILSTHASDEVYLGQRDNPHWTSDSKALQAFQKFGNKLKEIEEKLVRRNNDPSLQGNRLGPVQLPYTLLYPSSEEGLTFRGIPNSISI
Experimental: In vitro anti-LOX activities were evaluated using soybean lipoxygenase isoenzyme-1 (SLOX-1), a commonly used model for mammalian LOXs.
An in vitro study was conducted following a previously reported method. The tested compounds were dissolved in DMSO (100 µM) and incubated at room temperature with 0.1 mL of sodium linoleate as the substrate and 0.2 mL of soybean lipoxygenase solution in Tris-HCl buffer (pH 9.0).

[3] = molecular target: T3, COX-1 (Homo sapiens, UniProt P23219); test: In vitro inhibition of COX-1; type: biochemical
T3 construct: purchased Merck and Sigma-Aldrich
From the text: Enzyme inactivation can occur due to the accumulation of hydroperoxides formed from arachidonic acid or other fatty acid substrates. In order to prevent this in the in vitro experiment used for testing COX inhibition activity of the new molecules, a co-substrate like N,N,N′,N′-tetramethyl-p-phenylenediamine (TMPD) is included, as it undergoes co-oxidation by PGG2. The oxidized TMPD has a maximum absorbance at 590 nm. COX enzymes also depend on heme (Fe^3+-protoporphyrin IX) as a cofactor, which can dissociate during purification. To ensure maximum enzyme activity, heme is added to the reaction mixture during the in vitro assay for ovine COX-2 inhibition and COX-1 inhibition.
Cyclooxygenase (COX) activity was measured using arachidonic acid (AA) as the substrate and N,N,N′,N′-tetramethylphenylenediamine (TMPD) as the co-substrate following the reported method. […] The substrate oxidation was monitored at room temperature by recording the increase in absorbance at 590 nm. Absorbance due to the spontaneous oxidation of TMPD was subtracted from the initial oxidation rate observed in the presence of AA. The inhibitory activity of the test compounds at a concentration of 100 μM was evaluated after a 6-min pre-incubation with the enzyme in the presence of heme and TMPD.

[4] = tested on: HeLa cells; test: MTT viability assay; type: cell-based; details: Homo sapiens, 48 h
Experimental: (§1) HeLa, MCF-7, U251, U87, MDA-MB-435, and MDA-MB-231 cancer cell lines were maintained in incubators at 37 °C with 5% CO2 in DMEM medium supplemented with 10% (v/v) fetal bovine serum (FBS) and antibiotics/antimycotics. All cell lines used in this study originate from the Laboratory of Biochemistry, Department of Chemistry, Aristotle University of Thessaloniki. They are low-passage, mycoplasma-free cancer cell lines that have been extensively used over the past 25 years in numerous studies across various fields of cancer research, including drug cytotoxicity testing.
(§2) All cell lines tested were seeded in 96-well plates at a concentration of 6 × 10^3 cells per well, except HeLa, which were seeded at 3 × 10^3 cells per well. The day after, cells were exposed to increasing concentrations of the compounds for 48 h. Cell viability was determined using the 3-(4,5-dimethylthiazol-2-yl)-2,5-diphenyltetrazolium bromide (MTT) assay, a colorimetric assessment of cellular metabolic activity as described previously. Absorbance values from treated samples were normalized to those of untreated controls, which were assigned to a 100% viability value.

[5] = tested on: MCF-7 cells; test: MTT viability assay; type: cell-based; details: Homo sapiens, MCF7, 48 h
Experimental: as §1, §2

T3 sequence (P23219 24-599): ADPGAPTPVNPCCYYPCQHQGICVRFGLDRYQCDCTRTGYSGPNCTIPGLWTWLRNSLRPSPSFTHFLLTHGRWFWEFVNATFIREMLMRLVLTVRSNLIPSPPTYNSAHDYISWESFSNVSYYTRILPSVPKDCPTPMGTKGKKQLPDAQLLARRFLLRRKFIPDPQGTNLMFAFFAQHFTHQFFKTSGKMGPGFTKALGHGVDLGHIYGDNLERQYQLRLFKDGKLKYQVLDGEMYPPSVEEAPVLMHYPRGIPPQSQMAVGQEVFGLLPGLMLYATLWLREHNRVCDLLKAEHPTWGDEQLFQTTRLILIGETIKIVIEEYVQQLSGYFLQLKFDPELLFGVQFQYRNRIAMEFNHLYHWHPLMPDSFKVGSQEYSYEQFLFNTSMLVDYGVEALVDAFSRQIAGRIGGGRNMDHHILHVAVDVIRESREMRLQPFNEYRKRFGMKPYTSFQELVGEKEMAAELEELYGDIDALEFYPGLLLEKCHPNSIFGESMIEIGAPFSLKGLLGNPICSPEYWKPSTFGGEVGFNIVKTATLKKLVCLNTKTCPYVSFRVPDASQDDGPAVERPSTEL

IC50 [1] | IC50 [2] | inhibition at 100 µM [3] | EC50 [4] | EC50 [5] | Compound | COX-1 at 100 μM (% inhibition) [3]
80 µM | 60 µM | 16.7% | 36.7 µM | 38.3 µM | C/C(=N\O)c1ccc(NC(=O)COC(=O)/C(=C/c2cccs2)c2ccccc2)cc1 [Compound 6i, 2-((4-((E)-1-(Hydroxyimino)ethyl)phenyl)amino)-2-oxoethyl (E)-2-phenyl-3-(thiophen-2-yl)acrylate] | 
8.25 µM | 65 µM | 0% | 55.5 µM | 58.5 µM | O=C(/C=C/c1cc2ccccc2s1)OCc1c(-c2ccccc2)no[n+]1[O-] [Compound 9e, (E)-3-(((3-(Benzo[b]thiophen-2-yl)acryloyl)oxy)methyl)-4-phenyl-1,2,5-oxadiazole 2-oxide] | did not show any inhibition activity and no
35 µM | 10 µM | 0% | 83 µM | > 100 µM | C/C(=N\O)c1ccc(NC(=O)COC(=O)/C=C/c2cccs2)cc1 [Compound 6c, 2-((4-((E)-1-(Hydroxyimino)ethyl)phenyl)amino)-2-oxoethyl (E)-3-(thiophen-2-yl)acrylate] | did not show any inhibition activity and no
